# Source: patent US8748448B2, “Combination analgesic employing opioid agonist and neutral antagonist” (AIKO Biotechnology, priority 2007, dated 2014)
# Values joined by “and” are separate entries in the source; they are usually repeats but may differ in a detail not shown here. Identical values can stand only once. Like-named read-outs stand apart in the source and are kept apart here.
# Key:
# [1] = po; cited from earlier work
# [2] = Neutral antagonist comparison (Table 3); settings: for Equivalent dose (as compared to 1.5 mg to 5 mg 6β-naltrexol): 70 kg subject; for potency, times less potent than 6β-naltrexol: stated as 'may be'/'probably'
# [3] = test system: opioid withdrawal in methadone-dependent subjects; test: Double-blind ascending dose study in methadone maintenance subjects: withdrawal scales, VAS, vital signs, pupillometry, tolerability
# [4] = test system: hydrocodone-induced antinociception; test: 55° C. warm-water tail-flick assay: inhibition of hydrocodone-induced antinociception; format: in vivo, mice
# [5] = humans; literature; cited from earlier work
# [6] = test system: hydrocodone induced GI inhibition; test: GI transit assay (charcoal meal): reversal of hydrocodone induced GI inhibition; settings: for induction of diarrhea: on administration of the antagonist
# [7] = Concentrations in plasma and brain tissue after i.p. injection (LC/MS/MS); settings: for change of levels at 60 min from those measured at 10 min: after i.p. injection; for concentration at 10 min / concentration at 60 min: mouse, 1 mg/kg
# [8] = test system: hydrocodone effects: GI transit (peripheral) vs. antinociception (central); test: Peripheral vs. central potency, (antinociception ID50)/(GI transit ID50); format: in vivo, mice; settings: for fold more potent peripherally than centrally: over all administration routes
# [9] = Oral bioavailability of the neutral antagonists
# [10] = antagonist p.o. co-administered with hydrocodone A90 32 mg/kg p.o.
# [11] = antagonist i.v., hydrocodone A90 3.2 mg/kg i.v.
# [12] = antagonist p.o., hydrocodone A90 3.2 mg/kg i.v.
# [13] = 1 mg/kg i.p., 60 min after injection
# [14] = 10 mg/kg i.p., 10 min after injection
# [15] = 10 mg/kg i.p., 60 min after injection
molecule,measurement,setting,value
CCOC(=O)C1(c2ccccc2)CCN(C)CC1 [Pethidine],Bioavailability for CNS (central) effects,[1],50-60%
N[C@@H]1CC[C@@]2(O)[C@H]3Cc4ccc(O)c5c4[C@@]2(CCN3CC2CC2)[C@H]1O5 [6β-naltrexamine],Equivalent dose (as compared to 1.5 mg to 5 mg 6β-naltrexol),[2]; given orally,7.5 to 20 mg
same,"potency, times less potent than 6β-naltrexol",[2],3-6 fold
"C=CCN1CC[C@]23c4c5ccc(O)c4O[C@H]2C(=O)CC[C@@]3(O)[C@H]1C5 [Naloxone, naloxone, reference compound]",withdrawal symptoms,"[3]; 0.050 mg, methadone-dependent subjects",detectable withdrawal symptoms
same,"Diastolic BP, peak value",[3]; dose 0.05 mg,76.5 ± 3.8 mmHg
same,"Heart Rate, peak value",[3]; dose 0.05 mg,63.5 ± 8.0 bpm
same,"SOWS (total), peak value",[3]; dose 0.05 mg,3.0 ± 2.8
same,"VAS Any Drug Effect, peak value",[3]; dose 0.05 mg,15.4 ± 23.7
same,"VAS Bad Drug Effect, peak value",[3]; dose 0.05 mg,13.5 ± 25.0
same,"VAS Good Drug Effect, peak value",[3]; dose 0.05 mg,10.4 ± 18.9
same,"VAS Opioid Withdrawal, peak value",[3]; dose 0.05 mg,5.6 ± 8.2
same,"VAS Sickness, peak value",[3]; dose 0.05 mg,4.6 ± 6.5
same,"OOWS (total), peak value","[3]; dose 0.05 mg, mean ± standard deviation",2.5 ± 0.6
"O=C1CC[C@@]2(O)[C@H]3Cc4ccc(O)c5c4[C@@]2(CCN3CC2CC2)[C@H]1O5 [Naltrexone, naltrexone, reference compound]",Antinociception ID50,"[4]; antagonist i.v. pretreatment, hydrocodone A90 3.2 mg/kg i.v.",0.0411 mg/kg
same,Antinociception ID50,[4]; [10],0.914 mg/kg
same,Antinociception ID50,"[4]; antagonist p.o. pretreatment, hydrocodone A90 3.2 mg/kg i.v.",0.534 mg/kg
same,time of peak effect of antinociception inhibition,"[4]; i.v. administration, hydrocodone 3.2 mg/kg i.v.",30 min
same,time of peak effect of antinociception inhibition,"[4]; p.o. administration, hydrocodone 3.2 mg/kg i.v.",45 min
same,fraction converted to 6β-naltrexol,[5],approximately 43%
same,GI Transit ID50,[6]; [11],0.0456 mg/kg
same,GI Transit ID50,[6]; [10],1.40 mg/kg
same,GI Transit ID50,[6]; [12],0.194 mg/kg
same,induction of diarrhea,[6],strong induction of diarrhea was present
same,change of levels at 60 min from those measured at 10 min,[7],~90%
same,detectability after administration of 6β-naltrexol,[7]; i.p. 6β-naltrexol,no naltrexone was detectable
same,concentration at 10 min,"[7]; brain, intraperitoneal",69 ± 20 ng/g
same,concentration at 60 min,"[7]; brain, intraperitoneal",9 ± 1 ng/g
same,concentration at 10 min,[7]; in vivo,0.054 ± 0.016 µg/mL
same,concentration at 60 min,[7]; in vivo,0.004 ± 0.001 µg/mL
same,fold more potent peripherally than centrally,[8],nearly equipotent peripherally and centrally
COc1ccc2c3c1O[C@H]1C(=O)CC[C@H]4[C@@H](C2)N(C)CC[C@]314 [Hydrocodone],Bioavailability for CNS (central) effects,[1],≧80%
CN1CC[C@]23CCCC[C@H]2[C@H]1Cc1ccc(O)cc13 [Levorphanol],Bioavailability for CNS (central) effects,[1],70%
COc1ccc2c3c1O[C@H]1[C@@H](O)C=C[C@H]4[C@@H](C2)N(C)CC[C@@]341 [Codeine],Bioavailability for CNS (central) effects,[1],≈90%
COc1cccc(C2(O)CCCCC2CN(C)C)c1 (stereo not shown) [Tramadol],Bioavailability for CNS (central) effects,[1],68-72%
CN1CC[C@]23c4c5ccc(O)c4O[C@H]2C(=O)CC[C@@]3(O)[C@H]1C5 [Oxymorphone],Bioavailability for CNS (central) effects,[1],10%
6β-naltrexamide,"potency in blocking hydrocodone-induced antinociception, lower than that of 6β-naltrexol","[4]; mouse, in vivo",approximately 10 fold
same,time of peak effect of antinociception inhibition,"[4]; mouse, in vivo",120 min and 120 to 180 min
same,"potency in blocking peripheral effects, lower than 6β-naltrexol on a mg/kg basis",[6]; animal experiments,2-3 fold
same,GI Transit ID50,[6]; [11],0.173 mg/kg
same,GI Transit ID50,"[6]; antagonist p.o./hydrocodone p.o., full dose-response curves not available",1 to 2 mg/kg
same,GI Transit ID50,[6]; [12],1.92 mg/kg
same,"GI transit ID50, expected",[6]; i.v. administration,0.1 to 0.2 mg/kg
same,induction of diarrhea,[6],absent
same,"GI transit ID50, expected",[6]; p.o. administration,1 to 2 mg/kg
same,Half-life of active metabolites,[2],Estimated >12 hours
same,Bioavailability for CNS (central) effects,[2]; given orally,~25%
same,Equivalent dose (as compared to 1.5 mg to 5 mg 6β-naltrexol),[2]; given orally,3 to 8 mg
same,"potency, times less potent than 6β-naltrexol",[2],2-3 fold
same,"oral bioavailability (into the circulation), estimated","[9]; humans, estimated",approximately 25%
same,oral bioavailability,[9]; species not stated,~20%
same,Brain concentration,"[7]; 1 mg/kg i.p., 10 min after injection",6 ± 1 ng/g
same,Plasma concentration,"[7]; 1 mg/kg i.p., 10 min after injection, mean±SD, n=3",0.115 ± 0.002 µg/mL
same,Brain concentration,[7]; [13],4 ± 1 ng/g
same,Plasma concentration,[7]; [13],0.018 ± 0.001 µg/mL
same,Brain concentration,[7]; [14],27 ± 6 ng/g
same,Plasma concentration,[7]; [14],0.933 ± 0.221 µg/mL
same,Brain concentration,[7]; [15],24 ± 1 ng/g
same,Plasma concentration,[7]; [15],0.166 ± 0.077 µg/mL
same,change of levels at 60 min from those measured at 10 min,[7],had not changed
same,blood half-life compared with 6β-naltrexol,"[7]; mice, preliminary experiments",longer blood half-life than 6β-naltrexol
same,peripheral over central antagonist selectivity compared to 6β-naltrexol,[8]; animal experiments,somewhat higher
same,Fold-Shift (antinociception ID50)/(GI transit ID50),[8]; antagonist p.o./hydrocodone i.v.,14 and 14.3
same,selectivity in blocking peripheral over central opioid effects,"[8]; mice, oral administration, earlier experiments",approximately twenty-fold
same,fold more potent peripherally than centrally,[8],14-25 fold
